What was measured:
[1] = biological target: T1, 5-HT1A receptor (Human Ligand) (Homo sapiens, UniProt P08908); experiment: 5-HT1A cellular function, agonist; type: cell-based
T1 sequence (P08908 1-422): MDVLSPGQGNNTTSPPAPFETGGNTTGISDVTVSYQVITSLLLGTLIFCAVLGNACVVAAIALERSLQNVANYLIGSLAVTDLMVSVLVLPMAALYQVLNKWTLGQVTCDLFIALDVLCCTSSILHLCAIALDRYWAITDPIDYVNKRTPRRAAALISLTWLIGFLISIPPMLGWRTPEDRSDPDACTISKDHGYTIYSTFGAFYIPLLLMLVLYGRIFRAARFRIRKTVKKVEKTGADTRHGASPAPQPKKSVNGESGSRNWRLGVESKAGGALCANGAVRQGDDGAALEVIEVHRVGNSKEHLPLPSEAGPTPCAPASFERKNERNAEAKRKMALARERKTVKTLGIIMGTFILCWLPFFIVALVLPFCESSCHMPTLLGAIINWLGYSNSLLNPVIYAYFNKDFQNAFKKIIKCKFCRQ
Description: The percent of control agonist response was recorded for several log concentrations of compounds/compositions.

[2] = system: xylazine-induced emesis in cats; experiment: Xylazine-induced emesis in cats, with vomit scale and defensive behavior (anxiety) scoring; type: in vivo, cats (female domestic short-haired felines); conditions: for level of anxiety 15 minutes after treatment / cats vomited / protection against xylazine-induced emesis: FIG. 1, female cats; for cats vomited / protection against xylazine-induced emesis: fifteen minutes before 0.66 mg/kg xylazine SC, observed 30 minutes; for Defensive Behavior Scale / Mean Defensive Score / % Protection (vomiting) / Mean Latency (mean latency to retch/vomit): cats; for % Protection (vomiting) / Mean Latency (mean latency to retch/vomit): 20 minutes before xylazine 0.66 mg/kg; for anxiety-inducing effect in test subjects / effectiveness in preventing (chemically-induced) emesis: summary statement of the description, no dose given, test subjects
Description: (i) 0.9% sodium chloride vehicle (n=6);
[…], 0.66 mg/kg xylazine was administered subcutaneously, and the test subjects where then observed for 30 minutes.
Cats not susceptible to motion sickness were assigned to the xylazine testing group. Xylazine stimulates receptors on a pathway different from that used by motion sickness and thus served as a test of the generality of anti-emetic effects observed with motion testing.
Prior to the evaluation of anti-emetic compounds, the production of an emetic response by xylazine in felines was confirmed in the laboratory. Cats were injected subcutaneously with either a freshly prepared solution of 0.66 mg/kg of xylazine in 0.9% sodium chloride or 0.9% sodium chloride vehicle, both adjusted to an injection volume of 0.1 ml/kg.
One week following the confirmation of an emetic response by the cats, subject cats were given either vehicle or test compound/composition in 0.9% sodium chloride or vehicle (injection volume of 0.1 ml/kg) subcutaneously, 20 minutes before administration of xylazine. […] Animals were scored using the vomit scale developed by Sufi et al., 1979. Additional experiments were separated by at least a 1 week washout period.
A. Vomit Scale Scoring: • 1. Sal I (licking—parasympathetic): 1 pt • 2. Sal II (drool, thin/frothy—early sympathetic): 2 pts • 3. Sal III (stringy saliva, dangles—sympathetic): 4 pts • 4. Defection: 8 pts • 5. Urination: 8 pts • 6. Wretch/vomiting: 16 pts
B. Defensive Behavior Scale: • 1. No defensiveness: normal behavior; • 2. Slight defensiveness: retreating to the rear of the cage when approached and/or growling when being carried; • 3. […] Strong defensiveness: vigorous clawing and biting to prevent being handled. V. Statistical Methods
Dose response curves were analyzed by Cochran's Q-test to establish significant effects. Paired comparisons were made using McNemar's test. Tests for line parallelism, relative potency and ED50 were based on least squares regression in a program for pharmacological statistics. The data from the nonparametric rating scale was analyzed using Friedman's analysis of variance model (ANOVA).

[3] = biological target: T1, 5-HT1A receptor (Human Ligand); experiment: 5-HT1A cellular function, antagonist; type: cell-based
[4] = biological target: T2, rat ligand of the 5-HT1A receptor (Rattus norvegicus, UniProt P19327); conditions: Cornfield 1991, Hadrava 1996, Dabrowska 2006; cited from earlier work
T2 sequence (P19327 1-422): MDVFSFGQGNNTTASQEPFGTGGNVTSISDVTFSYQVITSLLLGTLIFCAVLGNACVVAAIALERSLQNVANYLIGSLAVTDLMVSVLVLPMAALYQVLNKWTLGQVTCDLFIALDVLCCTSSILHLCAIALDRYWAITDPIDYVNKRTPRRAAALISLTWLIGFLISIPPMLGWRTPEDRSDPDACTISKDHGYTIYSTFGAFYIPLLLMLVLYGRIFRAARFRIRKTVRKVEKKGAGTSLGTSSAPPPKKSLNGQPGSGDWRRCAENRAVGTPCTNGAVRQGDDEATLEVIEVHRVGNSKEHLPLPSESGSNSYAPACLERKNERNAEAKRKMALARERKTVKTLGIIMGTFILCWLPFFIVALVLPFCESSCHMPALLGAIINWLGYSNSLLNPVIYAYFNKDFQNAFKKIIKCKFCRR

| SMILES | level of anxiety 15 minutes after treatment ([2]; 0.08 mg/kg SC) | cats vomited ([2]; 0.08 mg/kg SC) | Defensive Behavior Scale ([2]; dose 0.08 mg/kg SC) | Mean Defensive Score ([2]; dose 0.08 mg/kg SC) | % Protection (vomiting) ([2]; dose 0.08 mg/kg SC) | Mean Latency (mean latency to retch/vomit) ([2]; dose 0.08 mg/kg SC) | Defensive Behavior Scale ([2]; dose 0.16 mg/kg SC) | Mean Defensive Score ([2]; dose 0.16 mg/kg SC) | % Protection (vomiting) ([2]; dose 0.16 mg/kg SC) | Mean Latency (mean latency to retch/vomit) ([2]; dose 0.16 mg/kg SC) | anxiety-inducing effect in test subjects [2] | effectiveness in preventing (chemically-induced) emesis [2] | Cellular Function Antagonist (IC50, nM) [3] | type of agonism at the 5-HT1A receptor (previous findings) [4] | also measured |
| --- | --- | --- | --- | --- | --- | --- | --- | --- | --- | --- | --- | --- | --- | --- | --- |
| CCCN(CCC)[C@H]1CCc2cccc(O)c2C1 [S-(−)-DPAT, S(−)-8-hydroxy-2-(dipropylamino)tetralin] | did not show any anxiety | 40% | None | 0.0 | 75.00% | 1.58 min | None | 0.0 | 85.71% | 0.82 min | no anxiety or only slight anxiety | not fully effective | Inactive | partial agonist | Cellular Function Agonist: type of agonism ([1]; listed as S(−)-8-OH-DPAT): Full Agonist; protection against xylazine-induced emesis ([2]; 0.08 mg/kg SC): 60%; Defensive Behavior Scale ([2]; dose 0.32 mg/kg SC): Slight; Mean Defensive Score ([2]; dose 0.32 mg/kg SC): 1.0; % Protection (vomiting) ([2]; dose 0.32 mg/kg SC): 80.00%; Mean Latency (mean latency to retch/vomit) ([2]; dose 0.32 mg/kg SC): 1.00 min |
| CCCN(CCC)C1CCc2cccc(O)c2C1 (racemic) [R/S-(+/−)-DPAT, (±)-8-Hydroxy-2-(dipropylamino)tetralin] |  |  |  |  |  |  | Moderate | 2.0 | 100.00% | 0.0 min |  |  | Inactive |  | level of anxiety 15 minutes after treatment ([2]; 0.16 mg/kg SC): moderate level of anxiety; protection against xylazine-induced emesis ([2]; 0.16 mg/kg SC): 100% |
| CCCN(CCC)[C@@H]1CCc2cccc(O)c2C1 [R-(+)-DPAT, R(+)-8-hydroxy-2-(dipropylamino)tetralin] | extreme level of anxiety | none of the cats vomited | Strong | 3.0 | 100.00% | 0.00 min |  |  |  |  | moderate to strong | 100% | Inactive | full agonist | Cellular Function Agonist: type of agonism ([1]; listed as R(+)-8-OH-DPAT): Full Agonist; Defensive Behavior Scale ([2]; dose 0.02 mg/kg SC): Moderate; Mean Defensive Score ([2]; dose 0.02 mg/kg SC): 2.0; % Protection (vomiting) ([2]; dose 0.02 mg/kg SC): 100.00%; Mean Latency (mean latency to retch/vomit) ([2]; dose 0.02 mg/kg SC): 0.00 min; Defensive Behavior Scale ([2]; dose 0.04 mg/kg SC): Strong; Mean Defensive Score ([2]; dose 0.04 mg/kg SC): 3.0; % Protection (vomiting) ([2]; dose 0.04 mg/kg SC): 100.00%; Mean Latency (mean latency to retch/vomit) ([2]; dose 0.04 mg/kg SC): 0.00 min |

Source: US10206889B2, “Emesis treatment” (Repurposed Therapeutics, Inc., priority 2009, dated 2019)
